# Measurements published in article PMC5004178, “A novel inhibitory effect of oxazol-5-one compounds on ROCKII signaling in human coronary artery vascular smooth muscle cells” (Scientific Reports, 2016).
# Target: T1, ROCKII (Homo sapiens, UniProt O75116)
# T1 construct: gene ROCK2; ROCKII(5–554), constitutively active recombinant
# Test: […]-phosphoryl transfer kinase assay with LC20 peptide; steady-state kinetics
# Assay type: biochemical
# T1 sequence (O75116 5-554): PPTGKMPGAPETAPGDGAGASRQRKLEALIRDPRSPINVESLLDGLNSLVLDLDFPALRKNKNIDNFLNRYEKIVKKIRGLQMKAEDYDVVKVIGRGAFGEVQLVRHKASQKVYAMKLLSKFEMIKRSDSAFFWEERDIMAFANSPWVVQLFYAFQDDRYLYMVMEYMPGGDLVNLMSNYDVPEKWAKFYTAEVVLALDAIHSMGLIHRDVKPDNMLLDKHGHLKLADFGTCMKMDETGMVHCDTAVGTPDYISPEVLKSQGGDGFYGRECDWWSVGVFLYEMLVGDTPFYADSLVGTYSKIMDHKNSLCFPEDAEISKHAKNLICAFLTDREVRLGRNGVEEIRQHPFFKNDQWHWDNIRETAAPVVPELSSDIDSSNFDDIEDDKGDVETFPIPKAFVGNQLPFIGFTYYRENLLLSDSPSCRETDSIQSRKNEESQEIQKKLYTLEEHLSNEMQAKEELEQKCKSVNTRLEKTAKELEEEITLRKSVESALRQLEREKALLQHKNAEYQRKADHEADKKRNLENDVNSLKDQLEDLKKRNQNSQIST
compound,measurement,value
"O=C1OC(c2ccc(Cl)c([N+](=O)[O-])c2)=N/C1=C\c1cccnc1 [DI, (4Z)-2-(4-chloro-3-nitrophenyl)-4-(pyridin-3-ylmethylidene)-1,3-oxazol-5-one]",Ki,132 nM
